Like-named read-outs stand apart in the source and are kept apart here.
Test system: Legionella pneumophila strains
Type: cell-based
Conditions: for optimal dose: dose giving best improvement in latency and/or growth rate
[1] = doses of between 10^−6 to 10^−2 mM, especially 10^−4 mM, numerous strains
[2] = supplemented medium vs reference medium (YEC), doses between 0.01 and 5% weight of compound on volume of sample, variety of strains

SMILES: [Ca+2].[Cl-].[Cl-] [calcium chloride]
- latency and/or growth rate [1]: Improvements in latency and/or growth rate

SMILES: C[C@@H](O)[C@H](N)C(=O)O [threonine]
- optimal dose: around 1 g per litre
- latency and/or growth rate [2]: improvements in latency and/or growth rate

SMILES: [Cl-].[K+] [potassium chloride]
- latency and/or growth rate (doses of between 1 to 10^−4 mM, especially around 10^−2 mM, a number of strains): Improvements in latency and/or growth rate

SMILES: N[C@@H](CO)C(=O)O [serine]
- optimal dose: around 1 g per litre
- latency and/or growth rate [2]: improvements in latency and/or growth rate

SMILES: [Cl-].[Cl-].[Mg+2] [magnesium chloride]
- latency and/or growth rate [1]: Improvements in latency and/or growth rate
